Drawing on patent US12281122B1, “PI3K inhibitors” (Cogent Biosciences, Inc., priority 2023, dated 2025), this text covers IC50 for 18 compounds.

Usually IC50 stands for the concentration that gives 50% inhibition. A lower IC50 goes with greater potency in that assay.

The test system of test [1] is SKBR3 (PI3Kα-Wild Type) cell line. The experiment in a line: HTRF phospho-AKT(S473) cell assay in SKBR3 cells. The note with it: Homo sapiens, SK-BR-3, 2 hours compound incubation, PDGF-BB stimulated. It is filed as cell-based, human. A digest of the protocol: (§1)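 pAKT(S473) in lysates read by HTRF after a 2 h, 37 °C compound exposure (12-point 1:3 series, max 0.5% DMSO). SKBR3 (wild type, top 10 μM) received 70 ng/ml PDGF-BB during the final 15 min; T47D (H1047R, top 5 μM) was unstimulated. IC50 values derived from the dose-response.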

Test [2] concerns T47D (PI3Kα-H1047R) cell line. The test can be described thus: HTRF phospho-AKT(S473) cell assay in T47D cells. It is filed as cell-based, human. The note with it: Homo sapiens, 2 hours compound incubation. The method in brief: as §1
A general note: In TR-FRET formats the signal depends on donor and acceptor labels being close together.

Where [3] appears, read: SKBR3 (PI3Kα-Wild Type) cells, HTRF phospho-AKT(S473).
Where [4] appears, read: T47D (PI3Kα-H1047R) cells, HTRF phospho-AKT(S473).
Setting [5] is: HTRF phospho-AKT(S473), SKBR3 (PI3Kα-Wild Type) cells.
[6] abbreviates: HTRF phospho-AKT(S473), T47D (PI3Kα-H1047R) cells.

The structures appear in SMILES notation.

For the compound `Cc1cc([C@@H](C)Nc2ccc(Cl)nc2C(=O)NS(C)(=O)=O)c2nc(N3Cc4cn(-c5ccc(C#N)cc5C)nc4C3)n(C)c(=O)c2c1` [Compound 250, (R)-6-chloro-3-((1-(2-(2-(4-cyano-2-methylphenyl)-2,6-dihydropyrrolo[3,4-c]pyrazol-5(4H)-yl)-3,6-dimethyl-4-oxo-3,4-dihydroquinazolin-8-yl)ethyl)amino)-N-(methylsulfonyl) picolinamide], the IC50 in test [1] (setting [3]) was 1000 to 5000 nM; in test [2] (setting [4]) it was below 250 nM.

As for `Cc1cc([C@@H](C)Nc2ccc(Cl)nc2C(=O)NS(C)(=O)=O)c2nc(N3Cc4n[nH]c(N)c4C3)n(C)c(=O)c2c1` [Compound 148, (R)-3-((1-(2-(3-amino-2,6-dihydropyrrolo[3,4-c]pyrazol-5(4H)-yl)-3,6-dimethyl-4-oxo-3,4-dihydroquinazolin-8-yl)ethyl)amino)-6-chloro-N-(methylsulfonyl) picolinamide], the IC50 was at least 5000 nM in test [1] (setting [3]) and 1000 to 5000 nM in test [2] (setting [4]).

Regarding `Cc1cc2c(=O)n(C)c(-c3ccc4nn(C)cc4c3)nc2c([C@@H](C)Nc2ccc(Cl)nc2C(=O)NS(C)(=O)=O)n1` [Compound 840, (R)-6-chloro-3-((1-(3,6-dimethyl-2-(2-methyl-2H-indazol-5-yl)-4-oxo-3,4-dihydropyrido[3,4-d]pyrimidin-8-yl)ethyl)amino)-N-(methylsulfonyl) picolinamide], the IC50 fell in the range of 1000 to 5000 nM in test [1] (SKBR3 (PI3Kα-Wild Type) cell line, phospho-AKT(S473) HTRF) and 1000 to 5000 nM in test [2] (T47D (PI3Kα-H1047R) cell line, phospho-AKT(S473) HTRF).

Consider `Cc1cc([C@@H](C)Nc2ccc(Cl)nc2C(=O)NS(C)(=O)=O)c2nc(N3Cc4cn(-c5cccnc5C)nc4C3)n(C)c(=O)c2c1` [Compound 246, (R)-6-chloro-3-((1-(3,6-dimethyl-2-(2-(2-methylpyridin-3-yl)-2,6-dihydropyrrolo[3,4-c]pyrazol-5(4H)-yl)-4-oxo-3,4-dihydroquinazolin-8-yl)ethyl)amino)-N-(methylsulfonyl) picolinamide], for which the values for the half-inhibitory concentration (IC50) in test [1] (setting [3]) and in test [2] (setting [4]) were 1000 to 5000 nM and below 250 nM, respectively.

As to `Cc1cc([C@@H](C)Nc2ccc(Cl)nc2C(=O)NS(C)(=O)=O)c2nc(N3CCC(n4c(C)nc5ccccc54)CC3)n(C)c(=O)c2c1` [Compound 268, (R)-6-chloro-3-((1-(3,6-dimethyl-2-(4-(2-methyl-1H-benzo[d]imidazol-1-yl)piperidin-1-yl)-4-oxo-3,4-dihydroquinazolin-8-yl)ethyl)amino)-N-(methylsulfonyl) picolinamide], the results for the IC50 in test [1] (setting [3]) and in test [2] (setting [4]) were at least 5000 nM and below 250 nM, respectively.

For `Cc1cc([C@@H](C)Nc2ccc(Cl)nc2C(=O)NS(C)(=O)=O)c2nc(N3C[C@@H]4[C@H](C3)[C@H]4c3cn(C)nc3C)n(C)c(=O)c2c1` [Compound 430, 6-chloro-3-(((R)-1-(2-((1R,5S,6S)-6-(1,3-dimethyl-1H-pyrazol-4-yl)-3-azabicyclo[3.1.0]hexan-3-yl)-3,6-dimethyl-4-oxo-3,4-dihydroquinazolin-8-yl)ethyl)amino)-N-(methylsulfonyl) picolinamide], the IC50 in test [1] (setting [3]) is 1000 to 5000 nM; in test [2] (setting [4]), below 250 nM.

For the compound `Cc1cnc(C2[C@H]3CN(c4nc5c([C@@H](C)Nc6ccc(Cl)nc6C(=O)NS(C)(=O)=O)cc(C)cc5c(=O)n4C)C[C@@H]23)nc1` (stereo partly drawn) [Compound 515, 6-chloro-3-(((1R)-1-(3,6-dimethyl-2-((1R,5S)-6-(5-methylpyrimidin-2-yl)-3-azabicyclo[3.1.0]hexan-3-yl)-4-oxo-3,4-dihydroquinazolin-8-yl)ethyl)amino)-N-(methylsulfonyl) picolinamide], the IC50 was 1000 to 5000 nM in test [1] (setting [5]) and below 250 nM in test [2] (setting [6]).

With `CCn1c(N2CCC(c3nc(C)n(C)n3)CC2)nc2c([C@@H](C)Nc3ccc(Cl)nc3C(=O)NS(C)(=O)=O)cc(C)cc2c1=O` [Compound 616, (R)-6-chloro-3-((1-(2-(4-(1,5-dimethyl-1H-1,2,4-triazol-3-yl)piperidin-1-yl)-3-ethyl-6-methyl-4-oxo-3,4-dihydroquinazolin-8-yl)ethyl)amino)-N-(methylsulfonyl) picolinamide], the results for the IC50 in test [1] (setting [5]) and in test [2] (setting [6]) were at least 5000 nM and below 250 nM, respectively.

Consider `Cc1cc([C@@H](C)Nc2ccc(Cl)nc2C(=O)NS(C)(=O)=O)c2nc(N3C[C@@H]4[C@H](C3)[C@H]4c3cn(CC(F)(F)F)nn3)n(C)c(=O)c2c1` [Compound 478, 6-chloro-3-(((R)-1-(3,6-dimethyl-4-oxo-2-((1R,5S,6R)-6-(1-(2,2,2-trifluoroethyl)-1H-1,2,3-triazol-4-yl)-3-azabicyclo[3.1.0]hexan-3-yl)-3,4-dihydroquinazolin-8-yl)ethyl)amino)-N-(methylsulfonyl) picolinamide], for which the IC50 is 1000 to 5000 nM in test [1] (setting [5]) and below 250 nM in test [2] (setting [6]).

As for `Cc1cc([C@@H](C)Nc2ccc(Cl)nc2C(=O)NS(C)(=O)=O)c2nc(N3CCC(c4n[nH]cc4Cl)CC3)n(C)c(=O)c2c1` [Compound 717, (R)-6-chloro-3-((1-(2-(4-(4-chloro-1H-pyrazol-3-yl)piperidin-1-yl)-3,6-dimethyl-4-oxo-3,4-dihydroquinazolin-8-yl)ethyl)amino)-N-(methylsulfonyl) picolinamide], the results for the IC50 in test [1] (setting [5]) and in test [2] (setting [6]) were at least 5000 nM and 250 to 500 nM, respectively.

As for `Cc1cc([C@@H](C)Nc2ccc(Cl)nc2C(=O)NS(C)(=O)=O)c2nc(-c3ccc4[nH]ncc4c3)n(C)c(=O)c2c1` [Compound 832, (R)-3-((1-(2-(1H-indazol-5-yl)-3,6-dimethyl-4-oxo-3,4-dihydroquinazolin-8-yl)ethyl)amino)-6-chloro-N-(methylsulfonyl) picolinamide], the IC50 in test [1] (setting [5]) lay in the range of 1000 to 5000 nM; in test [2] (setting [6]), 250 to 500 nM.

On to `Cc1cc([C@@H](C)Nc2ccc(Cl)nc2C(=O)NS(C)(=O)=O)c2nc(-c3ccc4oc(C)nc4c3)n(C)c(=O)c2c1` [Compound 821, (R)-6-chloro-3-((1-(3,6-dimethyl-2-(2-methylbenzo[d]oxazol-5-yl)-4-oxo-3,4-dihydroquinazolin-8-yl)ethyl)amino)-N-(methylsulfonyl) picolinamide], for which the IC50 in test [1] (setting [5]) was at least 5000 nM; in test [2] (setting [6]), 250 to 500 nM.

In the case of `CC(=O)N1CCC2(CC1)CCN(c1nc3c([C@@H](C)Nc4ccc(Cl)nc4C(=O)NS(C)(=O)=O)cc(C)cc3c(=O)n1C)CC2` [Compound 280, (R)-3-((1-(2-(9-acetyl-3,9-diazaspiro[5.5]undecan-3-yl)-3,6-dimethyl-4-oxo-3,4-dihydroquinazolin-8-yl)ethyl)amino)-6-chloro-N-(methylsulfonyl) picolinamide], the half-inhibitory concentration (IC50) was 1000 to 5000 nM in test [1] (setting [3]) and below 250 nM in test [2] (setting [4]).

As to `Cc1cc([C@@H](C)Nc2ccc(Cl)nc2C(=O)NS(C)(=O)=O)c2nc(N3C[C@@H]4[C@H](C3)[C@H]4c3n[nH]cc3F)n(C)c(=O)c2c1` [Compound 454, 6-chloro-3-(((R)-1-(2-((1R,5S,6R)-6-(4-fluoro-1H-pyrazol-3-yl)-3-azabicyclo[3.1.0]hexan-3-yl)-3,6-dimethyl-4-oxo-3,4-dihydroquinazolin-8-yl)ethyl)amino)-N-(methylsulfonyl) picolinamide], the values for the half-inhibitory concentration (IC50) in test [1] (setting [5]) and in test [2] (setting [6]) were 1000 to 5000 nM and below 250 nM, respectively.

As for `C[C@@H](Nc1ccc(Cl)nc1C(=O)NS(C)(=O)=O)c1cc(F)cc2c(=O)n(C)c(N3C[C@@H]4[C@H](C3)[C@H]4c3cnn(C)c3)nc12` [Compound 411, 6-chloro-3-(((R)-1-(6-fluoro-3-methyl-2-((1R,5S,6S)-6-(1-methyl-1H-pyrazol-4-yl)-3-azabicyclo[3.1.0]hexan-3-yl)-4-oxo-3,4-dihydroquinazolin-8-yl)ethyl)amino)-N-(methylsulfonyl) picolinamide], the IC50 in test [1] (setting [3]) was 1000 to 5000 nM; in test [2] (setting [4]) it was below 250 nM.

Take `COc1cncc(C2CCN(c3nc4c([C@@H](C)Nc5ccc(Cl)nc5C(=O)NS(C)(=O)=O)cc(C)cc4c(=O)n3C)CC2)n1` [Compound 400, (R)-6-chloro-3-((1-(2-(4-(6-methoxypyrazin-2-yl)piperidin-1-yl)-3,6-dimethyl-4-oxo-3,4-dihydroquinazolin-8-yl)ethyl)amino)-N-(methylsulfonyl) picolinamide]: the half-inhibitory concentration (IC50) lay in the range of 1000 to 5000 nM in test [1] (setting [3]) and 250 to 500 nM in test [2] (setting [4]).

Consider `Cc1cc([C@@H](C)Nc2ccc(Cl)nc2C(=O)NS(C)(=O)=O)c2nc(N3C[C@@H]4C[C@H]3C[C@@H]4c3ccn(C)n3)n(C)c(=O)c2c1` (relative stereo) [Compound 356, 6-chloro-3-(((R)-1-(3,6-dimethyl-2-((1R*,4S*,5R*)-5-(1-methyl-1H-pyrazol-3-yl)-2-azabicyclo[2.2.1]heptan-2-yl)-4-oxo-3,4-dihydroquinazolin-8-yl)ethyl)amino)-N-(methylsulfonyl) picolinamide], for which the half-inhibitory concentration (IC50) was 1000 to 5000 nM in test [1] (setting [3]) and below 250 nM in test [2] (setting [4]).

With `CC(=O)N1CCN(c2cc(F)c(-c3nc4c([C@@H](C)Nc5ccc(Cl)nc5C(=O)NS(C)(=O)=O)cc(C)cc4c(=O)n3C)cc2F)CC1` [Compound 800, (R)-3-((1-(2-(4-(4-acetylpiperazin-1-yl)-2,5-difluorophenyl)-3,6-dimethyl-4-oxo-3,4-dihydroquinazolin-8-yl)ethyl)amino)-6-chloro-N-(methylsulfonyl) picolinamide], the IC50 in test [1] (setting [5]) was 1000 to 5000 nM; in test [2] (setting [6]), below 250 nM.
